{"source": "patent US8815577B2", "about": "“Assay electrode having immobilized lipid/protein layers, methods of making the same and methods of using the same for luminescence test measurements” (Meso Scale Technologies, LLC, priority 2001, dated 2014)", "key": {"[1]": {"target": "melanocortin 5 receptor (MC5) (Homo sapiens, UniProt P33032)", "sequence (P33032 whole entry)": "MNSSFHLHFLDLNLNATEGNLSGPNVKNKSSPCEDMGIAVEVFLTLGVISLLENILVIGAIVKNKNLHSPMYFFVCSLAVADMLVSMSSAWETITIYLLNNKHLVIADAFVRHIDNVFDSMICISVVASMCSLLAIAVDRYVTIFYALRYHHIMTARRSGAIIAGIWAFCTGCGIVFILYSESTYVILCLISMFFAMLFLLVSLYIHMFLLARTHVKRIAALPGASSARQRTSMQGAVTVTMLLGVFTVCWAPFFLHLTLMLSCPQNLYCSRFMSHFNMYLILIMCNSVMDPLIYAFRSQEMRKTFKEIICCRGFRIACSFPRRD", "conditions": "at the higher concentrations", "protocol": "The membrane fragments came from HEK-293 cells that were transformed to express MC5.\nPure PHA-E was passively adsorbed onto the working electrode of plasma-treated Multi-Array 384-well plates by dispensing PHA-E (10 pmol per well) in PBS (5 μL per well) into the wells of the plate. Plates were sealed and incubated for 1 h at ambient temperature. Following the incubation, 3% BSA blocking solution was added (65 μL per well) and the plates were sealed and incubated for 1 h at room temperature. Plates were washed 4 times with PBS and dried. MC5 containing membrane fragments were immobilized in the plates using the procedure described in Example 2.3.1 except that in this case the immobilization occurred via lectin-sugar interactions.\nIn this Example, MC5 containing membrane fragments were immobilized on the electrode surface of plasma treated Multi-Array 96 well plates (Meso Scale Discovery) by capture on a passively adsorbed layer of pure Pokeweed Mitogen according to an immobilization protocol analogous to that described in the Example 2.3.2. […] The fluid in the wells was then removed and 150 μL of a buffered detergent-free solution of tripropylamine (MSD Assay Buffer T, surfactant free, Meso Scale Discovery) was added. ECL from the wells was measured using a Sector HTS plate reader."}, "EGFR in A431 cells [2]": {"test_system": "EGFR in A431 cells", "experiment": "Measuring of EGFR activation dependent phosphorylation (prophetic)", "format": "cell-based", "conditions": "membrane fragments of EGF-activated A431 cells", "from_the_text": "Activation of EGFR leads to its autophosphorylation. The cells are lysed as described in Example 1.2 to form cell membrane fragments (and, preferably, purified by centrifugation). The cell membrane fragments are immobilized on carbon electrodes integrated into the multi-well plates by passive adsorption or specific binding to a capture reagent previously immobilized on the electrode (e.g., wheat germ agglutinin, anti-EGFR, or another antibody specific for a membrane component, preferably, an epitope found on the cytoplasmic side) (as described in Example 1.3). The immobilized membrane fragments are treated with a buffered solution containing a STAG-labeled anti-phosphotyrosine antibody. In an alternate protocol, the membranes and antibody are premixed prior to addition of the membranes to the wells. A buffered tripropylamine solution is introduced to the well and ECL is induced and measured as described in Example 1.4."}, "EGFR in A431 cells [3]": {"test_system": "EGFR in A431 cells", "experiment": "Measurement of EGFR activation dependent binding events (prophetic)", "format": "cell-based", "conditions": "membrane fragments of EGF-activated A431 cells", "from_the_text": "Activation of the EGFR leads to autophosphorylation of EGFR followed by the sequential binding of shc to EGFR and grb-2 to shc. The cells are lysed as described in Example 1.2 to form cell membrane fragments (and, preferably, purified by centrifugation). The cell membrane fragments are immobilized on carbon electrodes integrated into the multi-well plates by passive adsorption (as described in Example 1.3) or specific binding to a capture reagent immobilized on the electrode (e.g., wheat germ agglutinin, anti-EGFR, or another antibody specific for a membrane component, preferably, an epitope found on the cytoplasmic side). The immobilized membrane fragments are treated with a buffered solution containing an STAG-labeled antibody directed against shc or grb-1. In an alternate protocol, the membranes and antibody are premixed prior to addition of the membranes to the wells. A buffered tripropylamine solution is introduced into the well and ECL is induced and measured as described in Example 1.4."}, "[4]": {"test_system": "tyrosine phosphatase activity / phosphotyrosine content in U2-OS cells", "experiment": "Cellular phosphotyrosine content in fixed U2-OS cells grown on carbon electrode, ECL detection (tyrosine phosphatase inhibition)", "format": "cell-based", "conditions": "1 mM, 30 minute incubation", "experimental": "U2-OS cells were grown in non-plasma treated Multi-Array plates using the growth conditions recommended by the American Type Culture Collection (ATCC reference number HTB-96). The plates were partially sterilized beforehand by illumination with a high energy UV light (Strata Linker Model 2400, Stratagene) set to deliver 9999 joules to the plate surface over the course of 5 minutes. Approximately 10,000 trypsinized cells were dispensed to each well of the 96 well plate in 100 μl of tissue culture media (see ATCC reference above) and incubated overnight in a cell culture incubator (at 37° C. in a humidified atmosphere containing 5% CO2) to promote attachment of the cells to the electrode surface.\nPer-Vanadate, a tyrosine phosphatase inhibitor was added to a some of the wells to give a final concentration of 1 mM in those wells. […]\nPhosphotyrosine containing proteins were detected by incubating the wells for one hour in 90 μl of PBS/FBS containing an anti-phosphotyrosine monoclonal antibody (100 ng/mL) and an anti-mouse secondary antibody (200 ng/mL) that was labeled with ruthenium-tris-bipyridine (ORI-TAG NHS Ester, IGEN International). […] ECL Assay Buffer was added (150 μl of OriGlo Plus, IGEN International) and the plate was analyzed using a Sector HTS instrument."}}}
{"substance": "[Nle4,D-Phe7]-α-melanocyte-stimulating hormone [NDP-α-MSH]", "values": [{"measurement": "inhibition of the binding of NDP-α-MSH-TAG to MC5", "setting": "[1]", "value": "almost complete"}]}
{"substance": "EGF: epidermal growth factor, ligand of EGFR (NSDSECPLSHDGYCLHDGVCMYIEALDKYACNCVVGYIGERCQYRDLKWWELR; not fully specified; Epidermal growth factor; UniProt P01133 971-1023, looked up)", "values": [{"measurement": "ECL signal (STAG-labeled anti-phosphotyrosine antibody) versus control A431 cells not exposed to EGF", "setting": "EGFR in A431 cells [2]", "value": "greater"}, {"measurement": "ECL signal (STAG-labeled antibody against shc or grb-1) versus control A431 cells not exposed to EGF", "setting": "EGFR in A431 cells [3]", "value": "greater"}]}
{"substance": "Per-vanadate", "values": [{"measurement": "ECL signal after subtraction of background, relative to untreated cells", "setting": "[4]", "value": "more than three times higher"}, {"measurement": "Average ECL signal (anti-phosphotyrosine antibody)", "setting": "[4]; n=4", "value": 7690.0}]}
